Where two headings read alike, the source gives them in different places.
Experiments:
[1] = test system: Key Broadleaf Weed and Crop Species; test: Post-emergent Test II herbicidal activity (Table 5); type: in vivo; conditions: post-emergence, 336 h, post-emergent, 14 days after application; for pest or weed control at 70 g/ha: 70 g ai/ha; for pest or weed control at 140 g/ha: 140 g ai/ha
Outline: (§1)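 Compounds, dissolved in 97:3 acetone/DMSO and diluted into an aqueous carrier containing crop oil concentrate and Triton X-155, are applied over the top of young plants at 187 L/ha. Injury is scored visually at 14 d, 0% meaning no effect and 100% complete kill.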

[2] = test system: Key Grass and Sedge Weeds as well as Grass Crops; test: Post-emergent Test II herbicidal activity (Table 6); type: in vivo; conditions: post-emergence, 336 h; for pest or weed control at 70 g/ha: application rate 70 g ai/ha; for pest or weed control at 140 g/ha: application rate 140 g ai/ha
Outline: as §1

[3] = ABUTH: velvetleaf (Abutilon theophrasti), read-out: Visual Growth Reduction (%) 14 Days After Application ABUTH
[4] = AMARE: redroot pigweed (Amaranthus retroflexus), read-out: Visual Growth Reduction (%) 14 Days After Application AMARE
[5] = BRSNN: oilseed-rape, canola (Brassica napus), read-out: Visual Growth Reduction (%) 14 Days After Application BRSNN
[6] = CHEAL: lambsquarters (Chenopodium album), read-out: Visual Growth Reduction (%) 14 Days After Application CHEAL
[7] = EPHHL: wild poinsettia (Euphorbia heterophylla), read-out: Visual Growth Reduction (%) 14 Days After Application EPHHL
[8] = HELAN: sunflower (Helianthus annuus), read-out: Visual Growth Reduction (%) 14 Days After Application HELAN
[9] = VIOTR: wild pansy (Viola tricolor), read-out: Visual Growth Reduction (%) 14 Days After Application VIOTR
[10] = Triticum aestivum, TRZSS (wheat), read-out: Visual Growth Reduction (%) 14 Days After Application, TRZSS
[11] = CYPES: yellow nutsedge (Cyperus esculentus), read-out: Visual Growth Reduction (%) 14 Days After Application, CYPES
[12] = DIGSA: crabgrass (Digitaria sanguinalis), read-out: Visual Growth Reduction (%) 14 Days After Application, DIGSA
[13] = ECHCG: barnyardgrass (Echinochloa crus-galli), read-out: Visual Growth Reduction (%) 14 Days After Application, ECHCG
[14] = ORYSA: rice (Oryza sativa), read-out: Visual Growth Reduction (%) 14 Days After Application, ORYSA
[15] = SETFA: giant foxtail (Setaria faberi), read-out: Visual Growth Reduction (%) 14 Days After Application, SETFA
[16] = SORVU: grain sorghum (Sorghum vulgare), read-out: Visual Growth Reduction (%) 14 Days After Application, SORVU
[17] = ZEAMX: maize, corn (Zea mays), read-out: Visual Growth Reduction (%) 14 Days After Application, ZEAMX

## C=Cc1c(C(=O)OC)nc(-c2ccc(C#N)cc2)c(F)c1N [Compound 107, methyl 4-amino-6-(4-cyanophenyl)-5-fluoro-3-vinylpicolinate]
[1]; [3]
  pest or weed control at 70 g/ha: 75 to 84%
  pest or weed control at 140 g/ha: 75 to 84%
[1]; [4]
  pest or weed control at 70 g/ha: 0 to 29%
  pest or weed control at 140 g/ha: 0 to 29%
[1]; [5]
  pest or weed control at 70 g/ha: 0 to 29%
  pest or weed control at 140 g/ha: 0 to 29%
[1]; [6]
  pest or weed control at 70 g/ha: 95 to 100%
  pest or weed control at 140 g/ha: 95 to 100%
[1]; [7]
  pest or weed control at 70 g/ha: 95 to 100%
  pest or weed control at 140 g/ha: 95 to 100%
[1]; [8]
  pest or weed control at 70 g/ha: 75 to 84%
  pest or weed control at 140 g/ha: 85 to 94%
[1]; [9]
  pest or weed control at 70 g/ha: 0 to 29%
  pest or weed control at 140 g/ha: 0 to 29%
[2]; [10]
  pest or weed control at 70 g/ha: 0 to 29%
  pest or weed control at 140 g/ha: 0 to 29%
[2]; [11]
  pest or weed control at 70 g/ha: 0 to 29%
  pest or weed control at 140 g/ha: 60 to 74%
[2]; [12]
  pest or weed control at 70 g/ha: 0 to 29%
  pest or weed control at 140 g/ha: 0 to 29%
[2]; [13]
  pest or weed control at 70 g/ha: 0 to 29%
  pest or weed control at 140 g/ha: 0 to 29%
[2]; [14]
  pest or weed control at 70 g/ha: 0 to 29%
  pest or weed control at 140 g/ha: 0 to 29%
[2]; [15]
  pest or weed control at 70 g/ha: 0 to 29%
  pest or weed control at 140 g/ha: 0 to 29%
[2]; [16]
  pest or weed control at 70 g/ha: 0 to 29%
  pest or weed control at 140 g/ha: 0 to 29%
[2]; [17]
  pest or weed control at 70 g/ha: 0 to 29%
  pest or weed control at 140 g/ha: 0 to 29%

From patent US9113629B2, “4-amino-6-(4-substituted-phenyl)-picolinates and 6-amino-2-(4-substituted-phenyl)-pyrimidine-4-carboxylates and their use as herbicides” (DOW AGROSCIENCES LLC, priority 2013, dated 2015)
